Results on 23 compounds are retold here after patent US20250084062A1, “SUBSTITUTED QUINOLINE DERIVATIVE” (ASTELLAS PHARMA INC., priority 2021, published 2025).

This assay has as its system acetylcholine receptor clustering in C2Cl2 cells. As to the kind of experiment: Induction of acetylcholine receptor clustering in mouse myoblasts C2Cl2 cells (Test Example 1). Conditions: for Emax / EC50: Mus musculus; for Emax: Myoblast, maximum response, area of acetylcholine receptor cluster region vs 10 ng/ml Agrin (100%), 0.1 ng/ml Agrin = 0%, read-out: Max; for EC50: Myotube, C2Cl2 myotubes, with 0.1 ng/ml Agrin, concentration giving 50% of cluster area of 10 ng/ml Agrin (100%), read-out: EC50. The class given is cell-based. As to the method:
Test Example 1: Evaluation of the Induction of Acetylcholine Receptor Clustering in Mouse Myoblasts C2Cl2 Cells
Induction of acetylcholine receptor clustering by the test compound was evaluated by using fluorescently-labeled Bungarotoxin to image and quantify the acetylcholine receptor cluster region induced by the differentiation of myoblasts into myotubes, and measure the change in area. The following test method was optimized with reference to various reports including FEBS let., 586, 3111-3116 (2012). When a concentration response curve is obtained by plotting the logarithmic concentration of the test compound on the horizontal axis and the ratio of the area of acetylcholine receptor cluster region on the vertical axis, the inducing action of the test compound can be determined.
A concentration response curve as an index indicating acetylcholine receptor clustering inducing action of the test compound in mouse C2Cl2 cells was prepared. C2Cl2 cells (ATCC Number: CRL-1772) were seeded at about 5000 cells/well on a 384-well plate (354667; Corning) coated with type I collagen and allowed to incubate at 37 degrees Celsius overnight in DMEM+20% FBS+1% penicillin/streptomycin medium. The following day, the medium was removed and replaced with a differentiation medium containing DMEM+2% FBS+1% penicillin/streptomycin, and allowed to incubate at 37 degrees Celsius for 4 days. The test compound was dissolved in DMSO and added to a differentiation medium containing 0.1 ng/ml Agrin (550-AG-100; R&D systems) such that the final concentration was […] (3-fold serial dilution) or 0.00017 to 3.3 μM (3-fold serial dilution). The final concentration of DMSO was 0.3%. After the 4 days of incubation, the differentiation medium was replaced with a differentiation medium containing the test compound and 0.1 ng/ml Agrin or a differentiation medium containing 0.1 ng/ml Agrin or 10 ng/ml Agrin alone, and allowed to incubate at 37 degrees Celsius overnight. The next day, 10 μl of DMEM containing Bungarotoxin-Alexa488 (B13422; Life technologies) was added to the differentiation medium containing test compound and Agrin and Agrin alone so that the final concentration of Bungarotoxin-Alexa488 was 1 μg/ml, and was allowed to incubate at 37 degrees Celsius for 1 hour to label the acetylcholine receptor. After removing all the medium, 4% PFA was added to each well and allowed to incubate at room temperature for 10 minutes, then washed with PBS, and allowed to incubate at room temperature for 30 minutes in PBS containing 5% goat serum and 0.3% Triton X-100. After removing the PBS solution, PBS-Tween20 (28352; Thermo fisher scientific) containing Anti-Myosin Heavy Chain eFluor (registered trademark) 660 (50-6503-82; eBioscience) and DAPI (340-07971; Dojindo) was added to each well and allowed to incubate at room temperature for 1 hour to label the myotubes and nuclei. After washing three times with PBS-Tween20, the fluorescence was imaged using IN Cell Analyzer 6000 (GE Healthcare). […] The response of control group (1) was regarded as 0% and the response of the control group (2) was regarded as 100%. For quantification, the signal of only the acetylcholine receptor present in the myotube was used to eliminate non-specific fluorescence.
EC50 and Max value were used as indicators of activity in order to quantitatively evaluate the inducing action of the test compound on acetylcholine receptor clustering. EC50 value is a test compound concentration which indicates 50% in terms of the area of acetylcholine receptor cluster region compared to that of 10 ng/ml Agrin (regarded as 100%) in the concentration response curve. EC50 was calculated by nonlinear regression analysis from the concentration response curve using the area of the cluster region of the test compound as an index. Max value is the maximum response value. […]

Counter-ions that a name gives are not always drawn.

Regarding `Cc1cc(-c2c(F)cc(S(=O)(=O)N3CC[C@H](F)C3)cc2F)nc2cc(C(=O)O)ccc12` [Example 1, 2-{2,6-difluoro-4-[(3S)-3-fluoropyrrolidine-1-sulfonyl]phenyl}-4-methylquinoline-7-carboxylic acid], the Emax is 91.9% and the EC50 is 0.064 µM.
The corresponding values for `Cc1cc(-c2c(F)cc(S(=O)(=O)N3CCC(F)CC3)cc2F)nc2cc(C(=O)N3CC4(CN(C)C4)C3)ccc12` [Example 3, {2-[2,6-difluoro-4-(4-fluoropiperidine-1-sulfonyl)phenyl]-4-methylquinolin-7-yl}(6-methyl-2,6-diazaspiro[3.3]heptan-2-yl) methanone] are 91.8% and 0.002 µM.
The like results for `Cc1cc(-c2c(F)cc(S(=O)(=O)N3CCC(F)CC3)cc2F)nc2cc(C(=O)N3CC(N)C3)ccc12` [Example 4, (3-aminoazetidin-1-yl) {2-[2,6-difluoro-4-(4-fluoropiperidine-1-sulfonyl)phenyl]-4-methylquinolin-7-yl}methanone] were, in that order, 81% and 0.013 µM.
For `Cc1cc(-c2ccc(S(=O)(=O)N3CCC(F)CC3)cc2F)nc2cc(C(=O)O)ccc12` [Example 5, 2-[2-fluoro-4-(4-fluoropiperidine-1-sulfonyl)phenyl]-4-methylquinoline-7-carboxylic acid], the Emax was determined as 86.8% and the EC50 was determined as 0.095 µM.
Regarding `Cc1cc(-c2c(F)cc(S(=O)(=O)N3CC[C@H](F)C3)cc2F)nc2nc(OCC(=O)O)ccc12` [Example 6, [(7-{2,6-difluoro-4-[(3S)-3-fluoropyrrolidine-1-sulfonyl]phenyl}-5-methyl-1,8-naphthyridin-2-yl)oxy]acetic acid], the Emax worked out at 76.3% and the EC50 was determined as 1.82 µM.
The corresponding values for `Cc1cc(-c2ccc(S(=O)(=O)N3CC[C@H](F)C3)cc2F)nc2c(F)c(C(=O)O)ccc12` [Example 7, 8-fluoro-2-{2-fluoro-4-[(3S)-3-fluoropyrrolidine-1-sulfonyl]phenyl}-4-methylquinoline-7-carboxylic acid] are 78.4% and 1.85 µM.
The corresponding values for `COc1cc(S(=O)(=O)N2CC[C@H](F)C2)cc(F)c1-c1cc(C)c2ccc(C(=O)O)nc2c1` [Example 8, 7-{2-fluoro-4-[(3S)-3-fluoropyrrolidine-1-sulfonyl]-6-methoxyphenyl}-5-methylquinoline-2-carboxylic acid] are 88.2% and 0.045 µM.
Take `Cc1cc(-c2ccc(S(=O)(=O)N3CC[C@H](F)C3)cc2F)nc2cc(C(=O)NS(=O)(=O)C3CC3)ccc12` [Example 9, N-(cyclopropanesulfonyl)-2-{2-fluoro-4-[(3S)-3-fluoropyrrolidine-1-sulfonyl]phenyl}-4-methylquinoline-7-carboxamide]: the Emax amounted to 34.9%. Further, for the setting “at 1.1 μM, vs 10 ng/ml Agrin (100%)”, the “response, % at 1.1 μM” value is recorded as 34.9% at 1.1 μM.
`CNCCNC(=O)c1ccc2c(C)cc(-c3c(F)cc(S(=O)(=O)N4CC[C@H](F)C4)cc3F)nc2c1` [Example 10, 2-{2,6-difluoro-4-[(3S)-3-fluoropyrrolidine-1-sulfonyl]phenyl}-4-methyl-N-[2-(methylamino)ethyl]quinoline-7-carboxamide hydrochloride]: the Emax was 96.7% and the EC50 was determined as 0.016 µM.
The corresponding values for `Cc1c(F)c(-c2c(F)cc(S(=O)(=O)N3CC[C@H](F)C3)cc2F)nc2cc(C(=O)N3CC(C)(C(=O)O)C3)ccc12` [Example 11, 1-(2-{2,6-difluoro-4-[(3S)-3-fluoropyrrolidine-1-sulfonyl]phenyl}-3-fluoro-4-methylquinoline-7-carbonyl)-3-methylazetidine-3-carboxylic acid] are 80.2% and 0.303 µM.
The corresponding values for `Cc1cc(-c2c(F)cc(S(=O)(=O)N3CC[C@H](F)C3)cc2F)nc2cc(C(=O)N[C@@H](CN)C(=O)O)ccc12` [Example 12, (2S)-3-amino-2-(2-{2,6-difluoro-4-[(3S)-3-fluoropyrrolidine-1-sulfonyl]phenyl}-4-methylquinoline-7-carboxamido) propanoic acid hydrochloride] are 69.7% and 0.268 µM.
The like results for `Cc1cc(-c2ccc(S(=O)(=O)N3CC[C@H](F)C3)cc2F)nc2cc(OCCN)ccc12` [Example 13, 2-[(2-{2-fluoro-4-[(3S)-3-fluoropyrrolidine-1-sulfonyl]phenyl}-4-methylquinolin-7-yl)oxy]ethan-1-amine hydrochloride] were, in that order, 117% and 0.003 µM.
Turning to `Cc1cc(-c2c(F)cc(S(=O)(=O)N3CCC(F)CC3)cc2F)nc2cc(C(=O)N3CC4(CNC4)C3)ccc12` [Example 14, (2,6-diazaspiro[3.3]heptan-2-yl) {2-[2,6-difluoro-4-(4-fluoropiperidine-1-sulfonyl)phenyl]-4-methylquinolin-7-yl}methanone], the Emax was determined as 83.5% and the 50% effective concentration (EC50) came to 0.021 µM.
The corresponding values for `CNCCNC(=O)c1ccc2c(C)cc(-c3c(F)cc(S(=O)(=O)N4CC[C@H](F)C4)cc3F)c(F)c2n1` [Example 15, 7-{2,6-difluoro-4-[(3S)-3-fluoropyrrolidine-1-sulfonyl]phenyl}-8-fluoro-5-methyl-N-[2-(methylamino)ethyl]quinoline-2-carboxamide hydrochloride] are 105% and 0.002 µM.
The like results for `CNCCCc1ccc2c(C)c(F)c(-c3c(F)cc(S(=O)(=O)N4CC[C@H](F)C4)cc3F)nc2c1` [Example 16, 3-(2-{2,6-difluoro-4-[(3S)-3-fluoropyrrolidine-1-sulfonyl]phenyl}-3-fluoro-4-methylquinolin-7-yl)-N-methylpropan-1-amine hydrochloride] were, in that order, 91.1% and 0.045 µM.
For `Cc1cc(-c2c(F)cc(S(=O)(=O)N3CC[C@H](F)C3)cc2F)nc2nc(C3CCN(C)CC3)ccc12` [Example 17, 2-{2,6-difluoro-4-[(3S)-3-fluoropyrrolidine-1-sulfonyl]phenyl}-4-methyl-7-(1-methylpiperidin-4-yl)-1,8-naphthyridine hydrochloride], the Emax turned out to be 78.7% and the EC50 was 0.065 µM.
The like results for `Cc1c(F)c(-c2c(F)cc(S(=O)(=O)N3CC[C@H](F)C3)cc2F)nc2cc(C(=O)O)ccc12` [Example 20, 2-{2,6-difluoro-4-[(3S)-3-fluoropyrrolidine-1-sulfonyl]phenyl}-3-fluoro-4-methylquinoline-7-carboxylic acid] were, in that order, 86.5% and 0.013 µM.
As to `Cc1cc(-c2c(F)cc(S(=O)(=O)N3CCCC3)cc2F)nc2cc(C(=O)O)ccc12` [Example 21], the Emax is 97.3% and the 50% effective concentration (EC50) came out at 0.147 µM.
The corresponding values for `Cc1cc(-c2c(F)cc(S(=O)(=O)N3CC[C@@H](F)C3)cc2F)nc2cc(C(=O)O)ccc12` [Example 22] are 84.8% and 1.9 µM.
The like results for `Cc1c(F)c(-c2c(F)cc(S(=O)(=O)N3CCCC3)cc2F)nc2cc(C(=O)O)ccc12` [Example 23] were, in that order, 85.9% and 0.069 µM.
On to `Cc1c(F)c(-c2c(F)cc(S(=O)(=O)N3CCC[C@@H]3C)cc2F)nc2cc(C(=O)O)ccc12` [Example 24], for which the Emax came to 92.3% and the EC50 was 0.011 µM.
`Cc1c(F)c(-c2c(F)cc(S(=O)(=O)N3CCCC34CC4)cc2F)nc2cc(C(=O)O)ccc12` [Example 25]: the Emax amounted to 105% and the 50% effective concentration (EC50) worked out at 0.182 µM.
The like results for `Cc1c(F)c(-c2c(F)cc(S(=O)(=O)N3CCCC3(C)C)cc2F)nc2cc(C(=O)O)ccc12` [Example 26] were, in that order, 99.8% and 0.019 µM.

Usually EC50 stands for the concentration giving half of the maximal effect.
